According to patent US5070092A, “Pyrroloindole derivatives related to DC-88A compound” (Kyowa Hakko Kogyo Co., Ltd., priority 1989, dated 1991):

Legend:
[1] = prior art U.S. Pat. No. 4,169,888, EP-A-0154445, EP-A-0339681; cited from earlier work
various bacteria = conditions: prior art WO 87/06265, EP-A-0351865, JP 139590/89; cited from earlier work
[2] = test system: lymphocytic leukemia P388; conditions: prior art WO 87/06265, EP-A-0351865, JP 139590/89; cited from earlier work
Sarcoma 180 tumor cells = experiment: Therapeutic Effect against Sarcoma 180 Tumor Cells; assay type: in vivo, male ddY-strain mice; conditions: intravenous, seven days after implantation
Protocol: Five male ddY-strain mice each having a weight of 18 to 20 g were used for each group as test animals, and 5×10^5 Sarcoma 180 tumor cells were implanted subcutaneously into the animals at the axilla. Ond day after the implantation, 0.2 ml of physiological saline containing a test compound in the concentration indicated in Table 3 was intravenously administered to each mouse. T/C [T: average tumor volume (mm^3) of the groups treated with the test compound, C: that of the control group which received an intravenous administration of 0.2 ml of physiological saline] was determined seven days after the implantation.

dd strain male mice = experiment: Acute Toxicity Test; assay type: in vivo; conditions: intraperitoneal, 14 days after administration
Protocol: A test compound was intraperitoneally administered to dd strain male mice each weighing 20 ±1 g. MLD (the minimum lethal dose) was determined by observing the mortality for 14 days after the administration.

Structure (SMILES) | Acute Toxicity (MLD), minimum lethal dose (dd strain male mice) [mg/kg] | Sarcoma 180 T/C (average tumor volume, treated/control) (Sarcoma 180 tumor cells; dose 1.0 mg/kg) | also measured
COc1c(O)c2c(c3cc(C(=O)N4CCc5c4c(O)c(OC)c4[nH]c(C(=O)N6CC7CC78C6=CC(=O)c6[nH]cc(C)c68)cc54)[nH]c13)CCN2C(N)=O (centres unmarked) [CC-1065] |  |  | anti-tumor activity [1]: exhibit anti-tumor activity
COC(=O)C1(C)NC2=C(C1=O)C13CC1CN(C(=O)c1cc4cc(OC)c(OC)c(OC)c4[nH]1)C3=CC2=O (centres unmarked) [DC-88A] |  |  | antibacterial activity (various bacteria): antibacterial activity against various bacteria; anti-tumor activity against lymphocytic leukemia P388 [2]: anti-tumor activity against lymphocytic leukemia P388
COC(=O)c1c(C)[nH]c2c(OC(=O)N3CCN(C)CC3)cc3c(c12)C(CBr)CN3C(=O)c1cc2cc(OC)c(OC)c(OC)c2[nH]1 (centres unmarked) [Compound 16] | 1.0 |  | Sarcoma 180 T/C (average tumor volume, treated/control) (Sarcoma 180 tumor cells; dose 0.50 mg/kg, 0.5 mg/kg): 0.24
COC(=O)c1c(C)[nH]c2c(O[Si](C)(C)C(C)(C)C)cc3c(c12)C(CBr)CN3C(=O)c1cc2cc(OC)c(OC)c(OC)c2[nH]1 (centres unmarked) [Compound 1] | 1.0 |  | Sarcoma 180 T/C (average tumor volume, treated/control) (Sarcoma 180 tumor cells; dose 0.25 mg/kg): 0.043
COC(=O)c1c(C)[nH]c2c(OC(=O)N(C)C)cc3c(c12)C(CBr)CN3C(=O)c1cc2cc(OC)c(OC)c(OC)c2[nH]1 (centres unmarked) [Compound 13] | 1.0 | 0.063 | 
COC(=O)c1c(C)[nH]c2c(OC(=O)N3CCN(C)CC3)cc3c(c12)C(CBr)CN3C(=O)c1cc2cc(OC)c(OC)c(OC)c2[nH]1 (centres unmarked) [Compound 18] | 0.84 |  | Sarcoma 180 T/C (average tumor volume, treated/control) (Sarcoma 180 tumor cells; dose 0.50 mg/kg, 0.5 mg/kg): 0.14
COC(=O)c1c(C)[nH]c2c(O)cc3c(c12)C(CCl)CN3C(=O)c1cc2cc(OC)c(OC)c(OC)c2[nH]1 (centres unmarked) [Compound 2] | 1.0 |  | 
COC(=O)c1c(C)[nH]c2c(OC(=O)N3CCCC3)cc3c(c12)C(CBr)CN3C(=O)c1cc2cc(OC)c(OC)c(OC)c2[nH]1 (centres unmarked) [Compound 15] | 1.0 | 0.088 | Sarcoma 180 T/C (average tumor volume, treated/control) (Sarcoma 180 tumor cells; dose 0.50 mg/kg): 0.21
COC(=O)c1c(C)[nH]c2c1C13CC1CN(C(=O)c1cc4cc(OC)c(OC)c(OC)c4[nH]1)C3=CC2=O (centres unmarked) [Compound 4] | 0.5 |  | Sarcoma 180 T/C (average tumor volume, treated/control) (Sarcoma 180 tumor cells; dose 0.25 mg/kg): 0.21
COC(=O)c1c(C)[nH]c2c(OC(=O)N3CCCCC3)cc3c(c12)C(CBr)CN3C(=O)c1cc2cc(OC)c(OC)c(OC)c2[nH]1 (centres unmarked) [Compound 14] | 1.0 | 0.098 | Sarcoma 180 T/C (average tumor volume, treated/control) (Sarcoma 180 tumor cells; dose 0.50 mg/kg): 0.20
